This passage reports AC50 and IC50 results from ChEMBL document CHEMBL1201862, “PubChem BioAssay data set” (2004).

What is called AC50 is the midpoint of the concentration-response curve, whichever way the signal moves. What is called IC50 is the concentration needed to halve the response being measured.

Test [1] deals with DNA topoisomerase (Yersinia pestis, UniProt A0A2S9PM60). Kind of test: Y. pestis Topo-I inhibitors, cleavage product readout, dose response, biochemical, cherry-pick (AID 588525).
The test system of test [2] is HeLa. Kind of test: HeLa cell cytotoxicity, dose response, cytotoxicity control, 48 h, plate reader, cherry-picks (AID 504942). Type of test: functional, cell-based. Conditions: Homo sapiens.
Test [3] addresses Acyl-homoserine lactone acylase PvdQ (Pseudomonas aeruginosa (strain LESB58), UniProt Q9I194). Kind of test: P. aeruginosa PvdQ acylase inhibitors, dose response, biochemical, fluorescence, plate reader and imaging, cherry-picks (AID 493231).
Test [4] deals with T1, Hexokinase HKDC1 (Homo sapiens, UniProt Q2TB90).
T1 sequence (Q2TB90 whole entry): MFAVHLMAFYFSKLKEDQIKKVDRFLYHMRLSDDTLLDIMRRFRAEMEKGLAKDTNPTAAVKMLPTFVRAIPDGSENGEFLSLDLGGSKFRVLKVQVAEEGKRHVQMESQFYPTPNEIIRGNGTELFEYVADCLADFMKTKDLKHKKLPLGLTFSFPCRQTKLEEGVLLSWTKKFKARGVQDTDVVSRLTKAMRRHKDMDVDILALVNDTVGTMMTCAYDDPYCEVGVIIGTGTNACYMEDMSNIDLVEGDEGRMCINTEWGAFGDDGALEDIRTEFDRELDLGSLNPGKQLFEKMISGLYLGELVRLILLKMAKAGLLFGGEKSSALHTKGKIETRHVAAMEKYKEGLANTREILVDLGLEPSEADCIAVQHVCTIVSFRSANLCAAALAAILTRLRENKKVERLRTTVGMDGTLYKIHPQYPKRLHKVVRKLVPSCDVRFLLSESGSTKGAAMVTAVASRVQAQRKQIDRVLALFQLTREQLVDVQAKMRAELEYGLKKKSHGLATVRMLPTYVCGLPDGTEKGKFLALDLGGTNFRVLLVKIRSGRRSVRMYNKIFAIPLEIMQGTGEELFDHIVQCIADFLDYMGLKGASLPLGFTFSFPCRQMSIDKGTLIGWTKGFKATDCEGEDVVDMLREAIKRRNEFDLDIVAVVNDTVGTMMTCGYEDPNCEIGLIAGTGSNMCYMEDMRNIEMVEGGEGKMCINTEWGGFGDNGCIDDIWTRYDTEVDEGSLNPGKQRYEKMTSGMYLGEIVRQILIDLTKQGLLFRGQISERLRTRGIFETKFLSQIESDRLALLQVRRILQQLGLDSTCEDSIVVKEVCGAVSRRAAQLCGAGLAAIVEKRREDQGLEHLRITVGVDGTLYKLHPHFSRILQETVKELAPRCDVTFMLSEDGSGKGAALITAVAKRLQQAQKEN
Kind of test: SAR analysis of small molecule inhibitors of hexokinase domain containing I (HKDC1). [Related pubchem assays (depositor defined):AID493160, AID493190]. Type of test: functional.

The target in test [5] is T2, Hexokinase-1 (Homo sapiens, UniProt P19367).
T2 sequence (P19367 whole entry): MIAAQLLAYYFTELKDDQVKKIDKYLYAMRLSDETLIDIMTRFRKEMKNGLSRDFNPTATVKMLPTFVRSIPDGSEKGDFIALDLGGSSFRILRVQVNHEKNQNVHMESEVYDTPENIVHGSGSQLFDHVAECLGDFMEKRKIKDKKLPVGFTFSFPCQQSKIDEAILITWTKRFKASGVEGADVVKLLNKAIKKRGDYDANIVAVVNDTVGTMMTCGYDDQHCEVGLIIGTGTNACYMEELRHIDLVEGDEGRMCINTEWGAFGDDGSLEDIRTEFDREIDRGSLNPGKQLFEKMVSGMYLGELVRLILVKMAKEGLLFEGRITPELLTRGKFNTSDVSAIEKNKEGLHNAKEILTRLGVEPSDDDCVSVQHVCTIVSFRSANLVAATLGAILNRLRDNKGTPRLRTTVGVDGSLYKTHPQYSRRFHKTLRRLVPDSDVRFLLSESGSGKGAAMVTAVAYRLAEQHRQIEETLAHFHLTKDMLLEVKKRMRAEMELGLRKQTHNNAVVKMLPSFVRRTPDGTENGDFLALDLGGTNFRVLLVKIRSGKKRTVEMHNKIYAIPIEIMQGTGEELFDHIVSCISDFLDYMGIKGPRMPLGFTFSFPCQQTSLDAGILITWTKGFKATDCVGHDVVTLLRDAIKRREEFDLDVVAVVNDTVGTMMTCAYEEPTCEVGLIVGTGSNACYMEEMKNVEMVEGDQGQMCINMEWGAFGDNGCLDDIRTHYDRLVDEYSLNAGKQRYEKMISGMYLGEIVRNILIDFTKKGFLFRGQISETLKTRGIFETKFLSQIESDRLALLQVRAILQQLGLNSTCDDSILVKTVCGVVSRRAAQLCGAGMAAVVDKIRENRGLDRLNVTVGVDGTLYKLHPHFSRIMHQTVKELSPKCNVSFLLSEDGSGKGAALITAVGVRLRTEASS
Kind of test: SAR analysis of small molecule inhibitors of hexokinase domain containing I (HKDC1) in the hexokinase 1 selectivity assay. [Related pubchem assays (depositor defined):AID493160, AID493190]. The format is functional.

The source made the active and inactive calls.

Sequence of Acyl-homoserine lactone acylase PvdQ (Q9I194 24-193 limits assumed): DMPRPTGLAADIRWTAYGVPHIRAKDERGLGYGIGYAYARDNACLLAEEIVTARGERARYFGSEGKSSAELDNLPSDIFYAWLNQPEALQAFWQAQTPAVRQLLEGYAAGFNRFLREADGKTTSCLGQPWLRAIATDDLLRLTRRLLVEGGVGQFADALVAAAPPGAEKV
Sequence of Acyl-homoserine lactone acylase PvdQ (Q9I194 217-762 limits assumed): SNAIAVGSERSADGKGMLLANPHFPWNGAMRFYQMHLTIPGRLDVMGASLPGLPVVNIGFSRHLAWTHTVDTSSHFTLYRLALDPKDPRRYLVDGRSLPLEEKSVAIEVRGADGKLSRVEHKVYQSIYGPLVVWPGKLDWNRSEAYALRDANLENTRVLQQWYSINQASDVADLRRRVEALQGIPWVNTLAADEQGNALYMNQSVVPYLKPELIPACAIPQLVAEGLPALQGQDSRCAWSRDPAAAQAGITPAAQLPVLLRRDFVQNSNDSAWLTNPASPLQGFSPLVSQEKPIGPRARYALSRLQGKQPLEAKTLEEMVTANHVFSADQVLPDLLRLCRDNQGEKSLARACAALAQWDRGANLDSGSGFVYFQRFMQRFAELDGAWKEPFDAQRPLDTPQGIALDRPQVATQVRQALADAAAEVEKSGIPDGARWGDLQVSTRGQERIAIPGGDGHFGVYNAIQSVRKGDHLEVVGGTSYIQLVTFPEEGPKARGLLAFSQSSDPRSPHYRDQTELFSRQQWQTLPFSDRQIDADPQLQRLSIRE
Sequence of DNA topoisomerase (A0A2S9PM60 whole entry): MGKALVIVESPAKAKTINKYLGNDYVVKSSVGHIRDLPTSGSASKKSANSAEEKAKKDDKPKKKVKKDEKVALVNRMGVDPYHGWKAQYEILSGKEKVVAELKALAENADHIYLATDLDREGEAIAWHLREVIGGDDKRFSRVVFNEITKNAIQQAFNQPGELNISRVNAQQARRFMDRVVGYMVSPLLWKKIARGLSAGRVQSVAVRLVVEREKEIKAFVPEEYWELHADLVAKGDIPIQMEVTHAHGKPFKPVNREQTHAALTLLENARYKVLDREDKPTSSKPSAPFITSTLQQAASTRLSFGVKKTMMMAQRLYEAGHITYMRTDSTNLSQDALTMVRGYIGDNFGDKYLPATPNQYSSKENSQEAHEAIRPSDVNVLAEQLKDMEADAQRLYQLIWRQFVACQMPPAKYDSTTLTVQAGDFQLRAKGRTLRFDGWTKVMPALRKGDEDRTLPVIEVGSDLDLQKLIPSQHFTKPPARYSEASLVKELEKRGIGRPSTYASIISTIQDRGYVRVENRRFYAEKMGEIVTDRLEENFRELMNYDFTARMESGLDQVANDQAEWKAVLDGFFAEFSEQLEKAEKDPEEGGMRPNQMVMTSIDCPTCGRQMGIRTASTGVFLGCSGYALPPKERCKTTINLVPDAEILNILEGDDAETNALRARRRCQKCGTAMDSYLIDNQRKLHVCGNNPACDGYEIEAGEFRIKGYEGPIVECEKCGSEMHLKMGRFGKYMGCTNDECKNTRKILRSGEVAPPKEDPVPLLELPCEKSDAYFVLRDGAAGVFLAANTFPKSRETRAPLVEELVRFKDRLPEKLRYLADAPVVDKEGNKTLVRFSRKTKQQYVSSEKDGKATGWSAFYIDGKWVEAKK

`Cc1cc(NC(=O)c2cc(-c3ccccc3)on2)n(-c2ccccc2)n1`: the AC50 in test [1] is 4.16 µM (active).
`Cc1cccc(NC(=O)c2ccc3c(c2)OCCO3)n1`: the results for the AC50 in test [2] and in test [3] were 94.1 µM (active) and 10.2 µM (active), respectively.
On to `Cc1ccccc1/C=C/c1nc2ccccc2c(=O)n1Cc1ccccc1`, for which the IC50 in test [4] and in test [5] was > 80 µM (inactive) in each case.
